“Also recorded” adds a separate entry of the source. Where a name gives a salt, the structure may show the parent alone. Read-outs that look alike come from different tables or passages of the source.
Tested on: pediatric patients with recurrent or refractory solid and CNS tumors
[1] = Dose Level 1, 80 mg/m^2, Part A, 6 evaluable
[2] = Dose Level 2, 100 mg/m^2, Part A, 5 evaluable
[3] = Dose Level 3, 125 mg/m^2, Part A, 4 evaluable
[4] = Dose Level 4, 150 mg/m^2, Part A, 5 evaluable
[5] = Dose Level 4, 150 mg/m^2, Part PK (expansion cohort), 5 evaluable
[6] = cycle 1, All Dose Levels (N=25)
[7] = cycle 1, Dose Level 1 (N=6), 80 mg/m^2
[8] = cycle 1, Dose Level 2 (N=5), 100 mg/m^2
[9] = cycle 1, Dose Level 3 (N=4), 125 mg/m^2
[10] = cycle 1, Dose Level 4 (N=10), 150 mg/m^2
[11] = cycle 1, drug-related, all dose levels, 25 evaluable

COc1cccc(OCCCN)c1-c1cc(Nc2cnc(C#N)cn2)n[nH]1 [prexasertib, Prexasertib mesylate monohydrate]
Grade 4 neutropenia, patients (22/25 patients): 88%
No. of Patients with Cycle 1 DLTs [1]: 0
No. of Patients with Later-Cycle DLTs [1]: 0
No. of Patients with Cycle 1 DLTs [2]: 0
No. of Patients with Later-Cycle DLTs [2]: 0
No. of Patients with Cycle 1 DLTs [3]: 0
No. of Patients with Later-Cycle DLTs [3]: 0
No. of Patients with Cycle 1 DLTs [4]: 0
No. of Patients with Later-Cycle DLTs [4]: 0
No. of Patients with Cycle 1 DLTs [5]: 0
No. of Patients with Later-Cycle DLTs [5]: 0
maximum tolerated dose (MTD) (IV days 1 and 15 of 28-day cycle, up to 150 mg/m^2): not defined; also recorded: not reached; also recorded: did not reach
Alanine aminotransferase increased, All [6]: 5 (20) No. (%)
Alanine aminotransferase increased, ≥ Grade 3 [6]: 1 (4) No. (%)
Anemia, All [6]: 19 (76) No. (%)
Anemia, ≥ Grade 3 [6]: 3 (12) No. (%)
Anorexia, All [6]: 3 (12) No. (%)
Anorexia, ≥ Grade 3 [6]: 0 (0) No. (%)
Aspartate aminotransferase increased, All [6]: 4 (16) No. (%)
Aspartate aminotransferase increased, ≥ Grade 3 [6]: 0 (0) No. (%)
Diarrhea, All [6]: 4 (16) No. (%)
Diarrhea, ≥ Grade 3 [6]: 0 (0) No. (%)
Electrocardiogram QT corrected interval prolonged, All [6]: 9 (36) No. (%)
Electrocardiogram QT corrected interval prolonged, ≥ Grade 3 [6]: 0 (0) No. (%)
Fatigue, All [6]: 6 (24) No. (%)
Fatigue, ≥ Grade 3 [6]: 0 (0) No. (%)
Headache, All [6]: 3 (12) No. (%)
Headache, ≥ Grade 3 [6]: 0 (0) No. (%)
Hypokalemia, All [6]: 5 (20) No. (%)
Hypokalemia, ≥ Grade 3 [6]: 0 (0) No. (%)
Hypophosphatemia, All [6]: 4 (16) No. (%)
Hypophosphatemia, ≥ Grade 3 [6]: 0 (0) No. (%)
Infusion-related reaction, All [6]: 3 (12) No. (%)
Infusion-related reaction, ≥ Grade 3 [6]: 0 (0) No. (%)
Lymphocyte count decreased, All [6]: 12 (48) No. (%)
Lymphocyte count decreased, ≥ Grade 3 [6]: 6 (24) No. (%)
Myalgia, All [6]: 3 (12) No. (%)
Myalgia, ≥ Grade 3 [6]: 0 (0) No. (%)
Nausea, All [6]: 5 (20) No. (%)
Nausea, ≥ Grade 3 [6]: 0 (0) No. (%)
Neutrophil count decreased, All [6]: 25 (100) No. (%)
Neutrophil count decreased, ≥ Grade 3 [6]: 25 (100) No. (%)
Platelet count decreased, All [6]: 21 (84) No. (%)
Platelet count decreased, ≥ Grade 3 [6]: 6 (24) No. (%)
Vomiting, All [6]: 6 (24) No. (%)
Vomiting, ≥ Grade 3 [6]: 0 (0) No. (%)
White blood cell decreased, All [6]: 24 (96) No. (%)
White blood cell decreased, ≥ Grade 3 [6]: 17 (68) No. (%)
Alanine aminotransferase increased, All [7]: 2 (33) No. (%)
Alanine aminotransferase increased, ≥ Grade 3 [7]: 0 (0) No. (%)
Anemia, All [7]: 5 (83) No. (%)
Anemia, ≥ Grade 3 [7]: 0 (0) No. (%)
Anorexia, All [7]: 2 (33) No. (%)
Anorexia, ≥ Grade 3 [7]: 0 (0) No. (%)
Aspartate aminotransferase increased, All [7]: 0 (0) No. (%)
Aspartate aminotransferase increased, ≥ Grade 3 [7]: 0 (0) No. (%)
Diarrhea, All [7]: 2 (33) No. (%)
Diarrhea, ≥ Grade 3 [7]: 0 (0) No. (%)
Electrocardiogram QT corrected interval prolonged, All [7]: 2 (33) No. (%)
Electrocardiogram QT corrected interval prolonged, ≥ Grade 3 [7]: 0 (0) No. (%)
Fatigue, All [7]: 0 (0) No. (%)
Fatigue, ≥ Grade 3 [7]: 0 (0) No. (%)
Headache, All [7]: 0 (0) No. (%)
Headache, ≥ Grade 3 [7]: 0 (0) No. (%)
Hypokalemia, All [7]: 0 (0) No. (%)
Hypokalemia, ≥ Grade 3 [7]: 0 (0) No. (%)
Hypophosphatemia, All [7]: 1 (17) No. (%)
Hypophosphatemia, ≥ Grade 3 [7]: 0 (0) No. (%)
Infusion-related reaction, All [7]: 1 (17) No. (%)
Infusion-related reaction, ≥ Grade 3 [7]: 0 (0) No. (%)
Lymphocyte count decreased, All [7]: 3 (50) No. (%)
Lymphocyte count decreased, ≥ Grade 3 [7]: 2 (33) No. (%)
Myalgia, All [7]: 0 (0) No. (%)
Myalgia, ≥ Grade 3 [7]: 0 (0) No. (%)
Nausea, All [7]: 1 (17) No. (%)
Nausea, ≥ Grade 3 [7]: 0 (0) No. (%)
Neutrophil count decreased, All [7]: 6 (100) No. (%)
Neutrophil count decreased, ≥ Grade 3 [7]: 6 (100) No. (%)
Platelet count decreased, All [7]: 4 (67) No. (%)
Platelet count decreased, ≥ Grade 3 [7]: 1 (17) No. (%)
Vomiting, All [7]: 1 (17) No. (%)
Vomiting, ≥ Grade 3 [7]: 0 (0) No. (%)
White blood cell decreased, All [7]: 5 (83) No. (%)
White blood cell decreased, ≥ Grade 3 [7]: 4 (67) No. (%)
Alanine aminotransferase increased, All [8]: 2 (40) No. (%)
Alanine aminotransferase increased, ≥ Grade 3 [8]: 1 (20) No. (%)
Anemia, All [8]: 3 (60) No. (%)
Anemia, ≥ Grade 3 [8]: 1 (20) No. (%)
Anorexia, All [8]: 0 (0) No. (%)
Anorexia, ≥ Grade 3 [8]: 0 (0) No. (%)
Aspartate aminotransferase increased, All [8]: 3 (60) No. (%)
Aspartate aminotransferase increased, ≥ Grade 3 [8]: 0 (0) No. (%)
Diarrhea, All [8]: 1 (20) No. (%)
Diarrhea, ≥ Grade 3 [8]: 0 (0) No. (%)
Electrocardiogram QT corrected interval prolonged, All [8]: 1 (20) No. (%)
Electrocardiogram QT corrected interval prolonged, ≥ Grade 3 [8]: 0 (0) No. (%)
Fatigue, All [8]: 2 (40) No. (%)
Fatigue, ≥ Grade 3 [8]: 0 (0) No. (%)
Headache, All [8]: 0 (0) No. (%)
Headache, ≥ Grade 3 [8]: 0 (0) No. (%)
Hypokalemia, All [8]: 2 (40) No. (%)
Hypokalemia, ≥ Grade 3 [8]: 0 (0) No. (%)
Hypophosphatemia, All [8]: 0 (0) No. (%)
Hypophosphatemia, ≥ Grade 3 [8]: 0 (0) No. (%)
Infusion-related reaction, All [8]: 1 (20) No. (%)
Infusion-related reaction, ≥ Grade 3 [8]: 0 (0) No. (%)
Lymphocyte count decreased, All [8]: 2 (40) No. (%)
Lymphocyte count decreased, ≥ Grade 3 [8]: 0 (0) No. (%)
Myalgia, All [8]: 1 (20) No. (%)
Myalgia, ≥ Grade 3 [8]: 0 (0) No. (%)
Nausea, All [8]: 1 (20) No. (%)
Nausea, ≥ Grade 3 [8]: 0 (0) No. (%)
Neutrophil count decreased, All [8]: 5 (100) No. (%)
Neutrophil count decreased, ≥ Grade 3 [8]: 5 (100) No. (%)
Platelet count decreased, All [8]: 5 (100) No. (%)
Platelet count decreased, ≥ Grade 3 [8]: 2 (40) No. (%)
Vomiting, All [8]: 1 (20) No. (%)
Vomiting, ≥ Grade 3 [8]: 0 (0) No. (%)
White blood cell decreased, All [8]: 5 (100) No. (%)
White blood cell decreased, ≥ Grade 3 [8]: 3 (60) No. (%)
Alanine aminotransferase increased, All [9]: 0 (0) No. (%)
Alanine aminotransferase increased, ≥ Grade 3 [9]: 0 (0) No. (%)
Anemia, All [9]: 3 (75) No. (%)
Anemia, ≥ Grade 3 [9]: 1 (25) No. (%)
Anorexia, All [9]: 0 (0) No. (%)
Anorexia, ≥ Grade 3 [9]: 0 (0) No. (%)
Aspartate aminotransferase increased, All [9]: 0 (0) No. (%)
Aspartate aminotransferase increased, ≥ Grade 3 [9]: 0 (0) No. (%)
Diarrhea, All [9]: 0 (0) No. (%)
Diarrhea, ≥ Grade 3 [9]: 0 (0) No. (%)
Electrocardiogram QT corrected interval prolonged, All [9]: 2 (50) No. (%)
Electrocardiogram QT corrected interval prolonged, ≥ Grade 3 [9]: 0 (0) No. (%)
Fatigue, All [9]: 2 (50) No. (%)
Fatigue, ≥ Grade 3 [9]: 0 (0) No. (%)
Headache, All [9]: 1 (25) No. (%)
Headache, ≥ Grade 3 [9]: 0 (0) No. (%)
Hypokalemia, All [9]: 1 (25) No. (%)
Hypokalemia, ≥ Grade 3 [9]: 0 (0) No. (%)
Hypophosphatemia, All [9]: 0 (0) No. (%)
Hypophosphatemia, ≥ Grade 3 [9]: 0 (0) No. (%)
Infusion-related reaction, All [9]: 0 (0) No. (%)
Infusion-related reaction, ≥ Grade 3 [9]: 0 (0) No. (%)
Lymphocyte count decreased, All [9]: 2 (50) No. (%)
Lymphocyte count decreased, ≥ Grade 3 [9]: 2 (50) No. (%)
Myalgia, All [9]: 0 (0) No. (%)
Myalgia, ≥ Grade 3 [9]: 0 (0) No. (%)
Nausea, All [9]: 0 (0) No. (%)
Nausea, ≥ Grade 3 [9]: 0 (0) No. (%)
Neutrophil count decreased, All [9]: 4 (100) No. (%)
Neutrophil count decreased, ≥ Grade 3 [9]: 4 (100) No. (%)
Platelet count decreased, All [9]: 4 (100) No. (%)
Platelet count decreased, ≥ Grade 3 [9]: 2 (50) No. (%)
Vomiting, All [9]: 0 (0) No. (%)
Vomiting, ≥ Grade 3 [9]: 0 (0) No. (%)
White blood cell decreased, All [9]: 4 (100) No. (%)
White blood cell decreased, ≥ Grade 3 [9]: 3 (75) No. (%)
Alanine aminotransferase increased, All [10]: 1 (10) No. (%)
Alanine aminotransferase increased, ≥ Grade 3 [10]: 0 (0) No. (%)
Anemia, All [10]: 8 (80) No. (%)
Anemia, ≥ Grade 3 [10]: 1 (10) No. (%)
Anorexia, All [10]: 1 (10) No. (%)
Anorexia, ≥ Grade 3 [10]: 0 (0) No. (%)
Aspartate aminotransferase increased, All [10]: 1 (10) No. (%)
Aspartate aminotransferase increased, ≥ Grade 3 [10]: 0 (0) No. (%)
Diarrhea, All [10]: 1 (10) No. (%)
Diarrhea, ≥ Grade 3 [10]: 0 (0) No. (%)
Electrocardiogram QT corrected interval prolonged, All [10]: 4 (40) No. (%)
Electrocardiogram QT corrected interval prolonged, ≥ Grade 3 [10]: 0 (0) No. (%)
Fatigue, All [10]: 2 (20) No. (%)
Fatigue, ≥ Grade 3 [10]: 0 (0) No. (%)
Headache, All [10]: 2 (20) No. (%)
Headache, ≥ Grade 3 [10]: 0 (0) No. (%)
Hypokalemia, All [10]: 2 (20) No. (%)
Hypokalemia, ≥ Grade 3 [10]: 0 (0) No. (%)
Hypophosphatemia, All [10]: 3 (30) No. (%)
Hypophosphatemia, ≥ Grade 3 [10]: 0 (0) No. (%)
Infusion-related reaction, All [10]: 1 (10) No. (%)
Infusion-related reaction, ≥ Grade 3 [10]: 0 (0) No. (%)
Lymphocyte count decreased, All [10]: 5 (50) No. (%)
Lymphocyte count decreased, ≥ Grade 3 [10]: 2 (20) No. (%)
Myalgia, All [10]: 2 (20) No. (%)
Myalgia, ≥ Grade 3 [10]: 0 (0) No. (%)
Nausea, All [10]: 3 (30) No. (%)
Nausea, ≥ Grade 3 [10]: 0 (0) No. (%)
Neutrophil count decreased, All [10]: 10 (100) No. (%)
Neutrophil count decreased, ≥ Grade 3 [10]: 10 (100) No. (%)
Platelet count decreased, All [10]: 8 (80) No. (%)
Platelet count decreased, ≥ Grade 3 [10]: 1 (10) No. (%)
Vomiting, All [10]: 4 (40) No. (%)
Vomiting, ≥ Grade 3 [10]: 0 (0) No. (%)
White blood cell decreased, All [10]: 10 (100) No. (%)
White blood cell decreased, ≥ Grade 3 [10]: 7 (70) No. (%)
grade 3/4 anemia, patients [11]: 12%
grade 3/4 leukopenia, patients [11]: 68%
grade 3/4 lymphopenia, patients [11]: 24%
grade 3/4 neutropenia, patients [11]: 100%
grade 3/4 thrombocytopenia, patients [11]: 24%
dose-limiting toxicities (DLTs) (cycle 1 or later, all dose levels 80-150 mg/m^2): no cycle 1 or later dose-limiting toxicities; also recorded: No DLTs

Source: publication PMC9090141 (Pediatric blood & cancer, 2021)
